Data reported in patent publication US20210186879A1, “TARGETED DELIVERY OF HYDROPHILIC DRUGS TO LUNG” (DOUBLE BOND PHARMACEUTICALS AB, priority 2016, published 2021).

Columns and labels:
[1] = rat, in vivo, iv, 5 mg/kg
[2] = In vivo distribution of doxorubicin in lung and blood serum of Wistar rats; settings: 4 hours
Protocol: (§1) For in vivo investigation both rats and rabbits were used: female Wistar rats 60-75 days old weighing 300 g±30 g and Californian breed male rabbits 75-90 days old weighing 2000 g±250 g were selected. […] Different doxorubicin containing formulations with a total doxorubicin dose 5 mg/kg were administered via a single bolus injection into the tail for rats and via a slow flow of 1 ml/min in the marginal ear vein for rabbits.
(§2) Five or six pieces of lung tissue of a total weight of about 1 g were taken from different parts of a lung. The samples were homogenized with a solution of aqueous ethanol containing HCl for 20 s at 7000 rpm and for 10 s at 11000 rpm. […] Doxorubicin and doxycycline (DOC) concentration in the final supernatant was determined with fluorometric analysis and high-performance liquid chromatography respectively.
An aqueous solution of doxorubicin hydrochloride, an aqueous suspension of doxorubicin alkane sulfate and an aqueous suspension of doxorubicin alkyl sulfonate were administered via a single bolus injection into the tail Animals were sacrificed after 4 hours after administered via a single bolus injection into the tail; total doxorubicin dose 5 mg/kg. […] The results are summarized in Table 7 and illustrated in FIG. 10.

[3] = In vivo distribution of doxorubicin in lung and femoral muscle of Californian rabbits; settings: 4 hours
Protocol: as §1, §2
Suspension of complexes of doxorubicin and doxorubicin hydrochloride were administered via a slow flow of 1 ml/min to rabbits in the marginal ear vein with a total doxorubicin dose 1.25 mg/kg. Animals were sacrificed after 4 hours after administration. Concentration of doxorubicin in lung and femoral muscle was determined in accordance to the procedure described above. As it is seen from table 8 the concentration of doxorubicin in femoral muscle as a representation of a system concentration is not increased for complexes compared with doxorubicin hydrochloride.

[4] = cited from earlier work
[5] = 5 mg/kg i.v. single bolus, ± SD
[6] = 1.25 mg/kg i.v. marginal ear vein, ± SD

CCCCCCCCCCCCCCOS(=O)(=O)O.COc1cccc2c1C(=O)c1c(O)c3c(c(O)c1C2=O)CC(O)(C(=O)CO)CC3OC1CC(N)C(O)C(C)O1 (stereo not shown) [doxorubicin CnH2n+1OSO3^− n=14]
Particle size particularly advantageous in targeting lung tissue [1]: 40-90 μm | Blood serum DOX [2, 5]: 0.023 ± 0.009 µg/kg | Lung tissue DOX [2, 5]: 3.17 ± 0.33 µg/kg | Blood serum Relative difference ([2]; relative to control CI-DOX (1)): 1.21 | Lung tissue Relative difference ([2]; relative to control CI-DOX (1)): 4.46 | Femoral muscle DOX [3, 6]: 0.06 ± 0.01 µg/kg | Lung tissue DOX [3, 6]: 6.14 ± 0.53 µg/kg | Femoral muscle Relative difference ([3]; relative to control CI-DOX (1)): 0.26 | Lung tissue Relative difference ([3]; relative to control CI-DOX (1)): 7.40

COc1cccc2c1C(=O)c1c(O)c3c(c(O)c1C2=O)C[C@@](O)(C(=O)CO)C[C@@H]3O[C@H]1C[C@H](N)[C@H](O)[C@H](C)O1 [doxorubicin]
Cumulative dose at which the risk of developing cardiac side effects increases dramatically [4]: ≥ 550 mg/m^2
